According to US10392630B2, “Plants having increased tolerance to herbicides” (BASF AGRO B.V., priority 2013, dated 2019):
Values joined by “and” are separate entries in the source; they are usually repeats but may differ in a detail not shown here. Identical values can stand only once.

Assays:
[1] = system: transgenic Arabidopsis thaliana plants; experiment: Growth inhibition of transgenic Arabidopsis in 48-well plates, tolerance factor (Table 5, FIG. 2); format: in vivo; settings: growth inhibition seven to ten days after seeding
[2] = target: Alopecurus mutant PPO (ALOMY), SEQ ID NO 2 with amino acid substitution; experiment: PPO enzyme assay, dose-response (fluorescence), mutated Alopecurus PPO2; format: biochemical, Alopecurus myosuroides
[3] = system: Alopecurus wildtype PPO (ALOMY), PPO herbicide sensitive PPO2, SEQ ID NO 2; experiment: PPO enzyme assay, dose-response (fluorescence), wildtype Alopecurus PPO2; format: biochemical, Alopecurus myosuroides; settings: Table 3a; PPO herbicide sensitive PPO2, SEQ ID NO 2, ALOMY
[4] = system: transgenic T0 corn events; experiment: Herbicide injury of transgenic T0 corn events, greenhouse spray (Table 6a); format: in vivo, Zea mays; parameters: key: 0 is no injury relative to an unsprayed wild type check; 9 is completely dead; settings: 7 days after treatment
[5] = system: transgenic soybean cv Jake cuttings; experiment: Herbicide injury of transgenic soybean cuttings from T0 plants (Table 7, FIG. 4); format: in vivo, Glyceine max; settings: V2 spray, 1 week after treatment

With `CC(C)N(C)S(=O)(=O)NC(=O)c1cc(-n2c(=O)cc(C(F)(F)F)n(C)c2=O)c(F)cc1Cl` [saflufenacil] as the molecule, how does the “TF (Tolerance Factor), relative tolerance rate (non-transgenic = 1.0)” value ([1]; transgenic Arabidopsis Am_PPO2_F438I) read?
The value was 3300.

What about the “TF (Tolerance Factor), relative tolerance rate (non-transgenic = 1.0)” value ([1]; transgenic Arabidopsis Am_PPO2_R137A) of the same molecule?
The value was 1500.

And the “TF (Tolerance Factor), relative tolerance rate (non-transgenic = 1.0)” value ([1]; transgenic Arabidopsis Am_PPO2_R137A_F438I)?
The value was 950.

What about the “TF (Tolerance Factor), relative tolerance rate (non-transgenic = 1.0)” value ([1]; transgenic Arabidopsis Am_PPO2_R137A_F438L) of the same molecule?
Its value is 2300.

What about the “TF (Tolerance Factor), relative tolerance rate (non-transgenic = 1.0)” value ([1]; transgenic Arabidopsis Am_PPO2_R137A_F438M) of the same molecule?
Its value is 2500.

And the “TF (Tolerance Factor), relative tolerance rate (non-transgenic = 1.0)” value ([1]; transgenic Arabidopsis Am_PPO2_R137A_F438V)?
Its value is 2500.

What about the “TF (Tolerance Factor), relative tolerance rate (non-transgenic = 1.0)” value ([1]; transgenic Arabidopsis Am_PPO2_R137I) of the same molecule?
The value was 2140.

And the “TF (Tolerance Factor), relative tolerance rate (non-transgenic = 1.0)” value ([1]; transgenic Arabidopsis Am_PPO2_R137L_F438I)?
Its value is 2700.

And the “TF (Tolerance Factor), relative tolerance rate (non-transgenic = 1.0)” value ([1]; transgenic Arabidopsis Am_PPO2_R137L_F438L)?
Its value is 2700.

What about the “TF (Tolerance Factor), relative tolerance rate (non-transgenic = 1.0)” value ([1]; transgenic Arabidopsis Am_PPO2_R137L_F438M) of the same molecule?
Its value is 3100.

And the “TF (Tolerance Factor), relative tolerance rate (non-transgenic = 1.0)” value ([1]; transgenic Arabidopsis Am_PPO2_R137M_F438I)?
The value was 1740.

What about the “TF (Tolerance Factor), relative tolerance rate (non-transgenic = 1.0)” value ([1]; transgenic Arabidopsis Am_PPO2_R137M_F438L) of the same molecule?
Its value is 1340.

What about the “TF (Tolerance Factor), relative tolerance rate (non-transgenic = 1.0)” value ([1]; transgenic Arabidopsis Am_PPO2_R137M_F438M) of the same molecule?
Its value is 1700.

What about the “TF (Tolerance Factor), relative tolerance rate (non-transgenic = 1.0)” value ([1]; transgenic Arabidopsis Am_PPO2_R137M_F438V) of the same molecule?
Its value is 1900.

And the IC50 [2]?
The IC50 was over 10000 nM.

And the IC50 [3]?
The IC50 was 211 nM.

What about the “Herbicide injury, 0 to 9 rating scale” value ([4]; T0 corn events tp-SorbiPPO2::AlomyPPO2_F431V, 75 g ai/ha + 1% (v/v) MSO at V2 stage) of the same molecule?
Its value is 3.

What about the “Herbicide injury, 0 to 9 rating scale” value ([4]; T0 corn events tp-SorbiPPO2::AlomyPPO2_R130A_F431V, 75 g ai/ha + 1% (v/v) MSO at V2 stage) of the same molecule?
The value was 7.

What about the “Herbicide injury, 0 to 9 rating scale” value ([4]; T0 corn events tp-ZeamaPPO2::AlomyPPO2_F431V, 75 g ai/ha + 1% (v/v) MSO at V2 stage) of the same molecule?
Its value is 0.

And the “Herbicide injury, 0 to 9 rating scale” value ([4]; T0 corn events tp-ZeamaPPO2::AlomyPPO2_R130A, 75 g ai/ha + 1% (v/v) MSO at V2 stage)?
The value was 0.

What about the “Herbicide injury, 0 to 9 rating scale” value ([4]; untransformed wild type corn, 50 g ai/ha + 1% (v/v) MSO at V2 stage) of the same molecule?
Its value is 7.

And the “Herbicide injury, 0 to 9 rating scale” value ([4]; untransformed wild type corn, 75 g ai/ha + 1% (v/v) MSO at V2 stage)?
The value was 8.

What about the “Herbicide injury, 0 to 9 rating scale” value ([4]; untransformed wild type corn, 100 g ai/ha + 1% (v/v) MSO at V2 stage) of the same molecule?
The value was 8.

What about the Herbicide injury ([5]; AlomyPPO1_R138A T0 cuttings, BAS 800H 25 g ai/ha) of the same molecule?
The Herbicide injury was 6 and 9.

And the Herbicide injury ([5]; AlomyPPO1_R138A_Y420M T0 cuttings, BAS 800H 25 g ai/ha)?
The Herbicide injury was 0.

What about the Herbicide injury ([5]; AlomyPPO1_R138A_Y420M T0 cuttings, BAS 800H 50 g ai/ha) of the same molecule?
Its Herbicide injury is 3.

And the Herbicide injury ([5]; AlomyPPO1_R138A_Y420M T0 cuttings, BAS 800H 100 g ai/ha)?
Its Herbicide injury is 3.

And the Herbicide injury ([5]; AlomyPPO1_R138L T0 cuttings, BAS 800H 25 g ai/ha)?
Its Herbicide injury is 8 and 7 and 6.

And the Herbicide injury ([5]; AlomyPPO1_R138L T0 cuttings, BAS 800H 50 g ai/ha)?
The Herbicide injury was 8 and 9 and 6 and 7.

What about the Herbicide injury ([5]; AlomyPPO1_R138L T0 cuttings, BAS 800H 100 g ai/ha) of the same molecule?
Its Herbicide injury is 8 and 9.

What about the Herbicide injury ([5]; AlomyPPO1_Y420M T0 cuttings, BAS 800H 50 g ai/ha) of the same molecule?
The Herbicide injury was 5 and 4 and 8.

And the Herbicide injury ([5]; AlomyPPO1_Y420M T0 cuttings, BAS 800H 100 g ai/ha)?
Its Herbicide injury is 5 and 4 and 8.

And the Herbicide injury ([5]; AlomyPPO2_R137A T0 cuttings, BAS 800H 25 g ai/ha)?
Its Herbicide injury is 3.

What about the Herbicide injury ([5]; AlomyPPO2_R137A T0 cuttings, BAS 800H 50 g ai/ha) of the same molecule?
The Herbicide injury was 0.

What about the Herbicide injury ([5]; AlomyPPO2_R137A T0 cuttings, BAS 800H 100 g ai/ha) of the same molecule?
Its Herbicide injury is 2.

What about the Herbicide injury ([5]; AlomyPPO2_R137A_F438L T0 cuttings, BAS 800H 200 g ai/ha) of the same molecule?
The Herbicide injury was 6 and 9.

And the Herbicide injury ([5]; AlomyPPO2_R137A_F438V T0 cuttings, BAS 800H 200 g ai/ha)?
The Herbicide injury was 4 and 3 and 6.

And the Herbicide injury ([5]; AlomyPPO2_R137L_F438I T0 cuttings, BAS 800H 100 g ai/ha)?
Its Herbicide injury is 9.

And the Herbicide injury ([5]; AlomyPPO2_R137L_F438I T0 cuttings, BAS 800H 200 g ai/ha)?
Its Herbicide injury is 9.

And the Herbicide injury ([5]; AlomyPPO2_R137M_F438L T0 cuttings, BAS 800H 50 g ai/ha)?
The Herbicide injury was 4.

What about the Herbicide injury ([5]; AlomyPPO2_R137M_F438L T0 cuttings, BAS 800H 100 g ai/ha) of the same molecule?
Its Herbicide injury is 6 and 3.

What about the Herbicide injury ([5]; AlomyPPO2_R137M_F438M T0 cuttings, BAS 800H 50 g ai/ha) of the same molecule?
Its Herbicide injury is 9.

What about the Herbicide injury ([5]; Wild type cuttings, BAS 800H 25 g ai/ha) of the same molecule?
Its Herbicide injury is 9.

What about the Herbicide injury ([5]; Wild type cuttings, BAS 800H 50 g ai/ha) of the same molecule?
Its Herbicide injury is 9.

What about the Herbicide injury ([5]; Wild type cuttings, BAS 800H 100 g ai/ha) of the same molecule?
The Herbicide injury was 9.

What about the Herbicide injury ([5]; Wild type cuttings, BAS 800H 200 g ai/ha) of the same molecule?
The Herbicide injury was 9.
